Assay results as given in paper PMC8426237, “A first-in-human phase I study of TAS0728, an oral covalent binding inhibitor of HER2, in patients with advanced solid tumors with HER2 or HER3 aberrations” (Investigational New Drugs, 2021).

Tests used:
[1] = Dose-limiting toxicities, 3 + 3 dose escalation, first cycle; assay type: in vivo, human; conditions: for Any DLTs / DLT: Grade ≥ 3 diarrhea only if lasting >48 h and unresponsive to intensive antidiarrheal medication: DLT-evaluable population; for Patients with DLT AEs: all treated population
Description: Based on preclinical toxicological studies and PK analysis, the starting dose of TAS0728 was 50 mg BID. Dose escalation followed a 3 + 3 dose-escalation scheme and planned to proceed using the following dose levels BID: 50 mg, 100 mg, 200 mg, 400 mg, 600 mg and 800 mg. TAS0728 was administered during a 21-day cycle.
If a DLT was identified at a particular dose level, de-escalation was made to an intermediate de-escalation dose level. […] The MTD was to be the dose level at which 0 of 6 or 1 of 6 patients experienced a DLT, with at least 2 patients experiencing DLTs at the next higher dose level. For the determination of the MTD, DLTs that occurred during the first cycle (i.e., first 21 days) of TAS0728 treatment were considered. Patients who experienced AEs were allowed two dose reductions during the study. TAS0728 treatment could be continued until disease progression, unacceptable toxicity, withdrawal of consent, or at the discretion of the investigator.

[2] = Plasma pharmacokinetics after single and multiple oral doses; assay type: in vivo, human
Description: Multiple blood samples were collected on day 1 of cycles 1 and 2 (i.e., pre-dose, post-dose at +0.5 h, +1 h, +1.5 h, +2 h, +3 h, +4 h, +6 h, +8 h, +12 h) for analysis of plasma PK after administration of single and multiple doses respectively; urine samples were collected 0–3 h prior to morning dose and 0–12 h post-morning dose on day 1 of cycle 1.
Continuous data were summarized with frequency, median, range, mean, standard deviation and standard error if relevant. Categorical data were presented as frequencies and percentages. 95% confidence intervals (CI) were calculated following the exact method. A p value <0.05 was considered statistically significant. Data were analyzed using the SAS® system software version 9.3 for Windows® (Statistical Analysis System, Cary, NC, USA). The PK data were analyzed using Phoenix WinNonlin (Version 6.4 or later, Certara L.P; Princeton New Jersey, United States). All analyses were descriptive and exploratory; no formal statistical testing was conducted.

[3] = test system: advanced solid tumors with HER2 or HER3 aberrations; test: Antitumor activity, objective tumor assessment by RECIST1.1; assay type: in vivo, human
Text: Objective tumor assessments were made according to the revised response evaluation criteria in solid tumors [RECIST1.1] [8] from evaluation of magnetic resonance imaging (MRI)/computed tomography (CT) scans made at screening (baseline) and after every 2 cycles during the first 6 months of treatment with TAS0728, and after every 3 cycles of treatment thereafter.

[4] = human, in vivo
Description: A DLT was defined as a study treatment-related adverse event (TRAE), according to the Common Terminology Criteria for Adverse Events (CTCAE, Version 5.0), with qualifying criteria for certain DLTs (e.g., Grade ≥ 3 diarrhea, was included as a DLT only if lasting >48 h and unresponsive to intensive antidiarrheal medication).
Patients were closely monitored for these potential toxicities during the current study. Safety assessments included recording of AEs and serious AEs (SAEs) from the time of signing the study informed consent form to 30 days after the last dose of study medication. Safety parameters including laboratory evaluations (hematology, coagulation, chemistry, and urinalysis), vital sign measurements and body weight, electrocardiogram (ECG) recordings, ECOG performance status, echocardiogram or multi-gated acquisition (MUGA), and physical examination were assessed at screening, during the study and at 30 days following the last dose. The use of concomitant medications was permitted and details for such medications were recorded.

HER2 = test system: HER2; parameters: method as in PMID 30787176; conditions: cited from earlier work
[5] = test system: HER2 overexpressed cancer cells; parameters: method as in PMID 30787176; conditions: cited from earlier work
[6] = test system: xenograft models of tumors with acquired resistance to trastuzumab/pertuzumab or to T-DM1; parameters: method as in PMID 32248641; conditions: cited from earlier work
[7] = parameters: method as in PMID 30787176; conditions: efficacious doses in mouse models; cited from earlier work
[8] = planned dose 50 mg, cycle 1, day 1, mean, n 3
[9] = planned dose 50 mg, cycle 1, day 1, n 3
[10] = planned dose 100 mg, cycle 1, day 1, mean, n 3
[11] = planned dose 100 mg, cycle 1, day 1, n 3
[12] = planned dose 100 mg, cycle 2, day 1, mean, n 2
[13] = planned dose 100 mg, cycle 2, day 1, mean, n 3
[14] = planned dose 100 mg, cycle 2, day 1, n 3
[15] = planned dose 150 mg, cycle 1, day 1, mean, n 5
[16] = planned dose 150 mg, cycle 1, day 1, mean, n 6
[17] = planned dose 150 mg, cycle 1, day 1, n 6
[18] = planned dose 150 mg, cycle 2, day 1, mean, n 2
[19] = planned dose 150 mg, cycle 2, day 1, n 2
[20] = planned dose 200 mg, cycle 1, day 1, mean, n 6
[21] = planned dose 200 mg, cycle 1, day 1, mean, n 7
[22] = planned dose 200 mg, cycle 1, day 1, n 7
[23] = planned dose 200 mg, cycle 2, day 1, mean, n 2
[24] = planned dose 200 mg, cycle 2, day 1, n 2

For `C=CC(=O)N1CCC[C@@H](n2nc(C(=O)Nc3ccc(CC(=O)N(C)C)c(C)c3C)c3c(N)ncnc32)C1` [TAS0728], the “Any DLTs” value ([1]; 50 mg BID (N = 3)) was 0 n, (%), the “DLT: Grade ≥ 3 diarrhea only if lasting >48 h and unresponsive to intensive antidiarrheal medication” value (“DLT … to intensive antidiarrheal medication” for short) ([1]; 50 mg BID (N = 3)) was 0 n, (%) and the “Patients with DLT AEs” value ([1]; 50 mg BID (N = 3)) was 0 n, (%). The “Any DLTs” value ([1]; 100 mg BID (N = 3)) was 0 n, (%), the “DLT … to intensive antidiarrheal medication” value ([1]; 100 mg BID (N = 3)) was 0 n, (%) and the “Patients with DLT AEs” value ([1]; 100 mg BID (N = 3)) was 0 n, (%). For the same molecule, the “Any DLTs” value ([1]; 150 mg BID (N = 3)) was 1 (33.3) n, (%), the “DLT … to intensive antidiarrheal medication” value ([1]; 150 mg BID (N = 3)) was 1 (33.3) n, (%) and the “Patients with DLT AEs” value ([1]; 150 mg BID (N = 6)) was 1 (16.7) n, (%). For the same molecule, the “DLTs observed (Grade 3 diarrhea lasting >48 h, not responsive to antidiarrheal treatment)” value ([1]; 200 mg BID) was “two”, the “Any DLTs” value ([1]; 200 mg BID (N = 6)) was 2 (33.3) n, (%) and the “DLT … to intensive antidiarrheal medication” value ([1]; 200 mg BID (N = 6)) was 2 (33.3) n, (%). For the same molecule, the “Patients with DLT AEs” value ([1]; 200 mg BID (N = 7)) was 2 (28.6) n, (%), the “Patients with DLT AEs” value ([1]; Overall (N = 19)) was 3 (15.8) n, (%) and the “Any DLTs” value ([1]; Total (N = 15)) was 3 (20.0) n, (%). For the same molecule, the “DLT … to intensive antidiarrheal medication” value ([1]; Total (N = 15)) was 3 (20.0) n, (%), the “Accumulation of TAS0728 exposure” value ([2]; BID multiple-dose administration) was “No significant accumulation” and the t1/2 ([2]; cycle 1, day 1, all dose levels) was “approximately 2.0 h”. The “AUC0–12” value [2, 8] was 2437 ng·h/mL, the AUCinf [2, 8] was 2470 ng·h/mL and the AUClast [2, 8] was 2415 ng·h/mL. The Cmax [2, 8] was 1162 ng/mL, the t1/2 [2, 8] was 1.96 h and the Tmax maximum [2, 9] was 1.58 h. For the same molecule, the Tmax median [2, 9] was 0.50 h, the Tmax minimum [2, 9] was 30 min and the “AUC0–12” value [2, 10] was 5669 ng·h/mL. It also gave an AUCinf [2, 10] of 5765 ng·h/mL, an AUClast [2, 10] of 5626 ng·h/mL and a Cmax [2, 10] of 2039 ng/mL. For the same molecule, the t1/2 [2, 10] was 1.90 h, the Tmax maximum [2, 11] was 3.05 h and the Tmax median [2, 11] was 0.58 h. The Tmax minimum [2, 11] was 31.8 min, the “AUC0–12” value [2, 12] was 5475 ng·h/mL and the “R(AUC0–12), observed accumulation ratio of AUC0–12” value [2, 12] was 0.87. The t1/2 [2, 12] was 2.17 h, the AUClast [2, 13] was 4276 ng·h/mL and the Cmax [2, 13] was 1389 ng/mL. The “R (Cmax), observed accumulation ratio of Cmax” value [2, 13] was 0.56, the Tmax maximum [2, 14] was 6.20 h and the Tmax median [2, 14] was 3.03 h. The Tmax minimum [2, 14] was 55.2 min, the “AUC0–12” value [2, 15] was 12,946 hr*ng/mL and the AUCinf [2, 15] was 13,158 hr*ng/mL. The t1/2 [2, 15] was 1.91 h, the AUClast [2, 16] was 19,523 hr*ng/mL and the Cmax [2, 16] was 5402 ng/mL. For the same molecule, the Tmax maximum [2, 17] was 1.05 h, the Tmax median [2, 17] was 0.59 h and the Tmax minimum [2, 17] was 30 min. For the same molecule, the “AUC0–12” value [2, 18] was 14,782 hr*ng/mL, the AUClast [2, 18] was 14,782 hr*ng/mL and the Cmax [2, 18] was 3460 ng/mL. The “R (Cmax), observed accumulation ratio of Cmax” value [2, 18] was 0.91, the “R(AUC0–12), observed accumulation ratio of AUC0–12” value [2, 18] was 1.61 and the t1/2 [2, 18] was 3.11 h. It also gave a Tmax maximum [2, 19] of 1.58 h, a Tmax median [2, 19] of 1.30 h and a Tmax minimum [2, 19] of 61.2 min. The “AUC0–12” value [2, 20] was 14,653 hr*ng/mL, the AUCinf [2, 20] was 15,046 hr*ng/mL and the t1/2 [2, 20] was 2.05 h. The AUClast [2, 21] was 15,108 hr*ng/mL, the Cmax [2, 21] was 5091 ng/mL and the Tmax maximum [2, 22] was 3.92 h. The Tmax median [2, 22] was 1.00 h, the Tmax minimum [2, 22] was 27 min and the “AUC0–12” value [2, 23] was 11,459 hr*ng/mL. For the same molecule, the AUClast [2, 23] was 11,248 hr*ng/mL, the Cmax [2, 23] was 2565 ng/mL and the “R (Cmax), observed accumulation ratio of Cmax” value [2, 23] was 0.96. For the same molecule, the “R(AUC0–12), observed accumulation ratio of AUC0–12” value [2, 23] was 1.18, the t1/2 [2, 23] was 3.13 h and the Tmax maximum [2, 24] was 3.25 h. The Tmax median [2, 24] was 1.88 h, the Tmax minimum [2, 24] was 31.2 min and the “Time on treatment before disease progression, patient with PR (BTC, HER2 amplification)” value ([3]; 200 mg BID, no dose adjustment) was 136 days. The “Patients with disease control (best overall tumor response of PR or SD)” value ([3]; all dose levels) was 10, the “Objective responses (PR)” value ([3]; of 19 treated patients, NSCLC with HER2 mutation at 50 mg BID, BTC with HER2 amplification at 200 mg BID) was “two” and the “Patients with urinary tract infection” value [4] was 28.6%. The “Specificity for HER2 over wild-type EGFR” value (HER2) was “high specificity for HER2 over wild-type EGFR”, the “Inhibitory effect against HER2 and HER3 versus EGFR” value (HER2; nonclinical studies) was “much greater against HER2 and HER3 than against EGFR” and the “Inhibitory activity for overexpressed/amplified HER2 and mutated HER2 in cancer cells” value [5] was “potent inhibitory activity”. For the same molecule, the “Antiproliferative activity against HER2 overexpressed cancer cells” value ([5]; in vitro and in vivo) was “antiproliferative activity”, the Anti-tumor effect [6] was “significant anti-tumor effects” and the Diarrhea during treatment [7] was “did not induce diarrhea”.
